Laboratory results published in US20040049009A1, “Methods for improving the antagonistic/agonistic properties of peptidic antagonists/agonists of the corticotropin-releasing factor receptor (crfr)” (priority 2000, published 2004).

Tests used:
[1] = Isoelectric focusing (IEF); type: physicochemical; details: determined by isoelectric focussing
Procedure: Isoelectric focusing (IEF) was carried out with a BioRad IEF cell system using Biorad IEF strips (11 cm, pH range from 3 to 10). The system was cooled to 20° C. Calibration was performed with 80 μg of Sigma IEF mix 3.6-9.3 dissolved in 200 μl water containing 0.2% Bio-Lyte® 3/10 and 0.1% NP40. Twenty five μg of each peptide was dissolved in 200 μl water containing 0.2% Bio-Lyte® 3/10,0.1% NP40, and 10 mM DTT.IEF gels were placed in the chamber containing the peptide solution. The IEF gels were initially rehydrated for 12 hours at 50 V. Focusing of the peptides was achieved by application of a linear voltage gradient starting at 250 V and reaching 8000 V in 2.5 hours. The gels were then exposed to 8000 V for 4.5 hours. Subsequently, the IEF gels were stained in the BioRad IEF gel staining solution and destained in a mixture of 10% acetic acid, 40% methanol, and 50% water.

[2] = tested on: C57BL/6J mice; assay: Elevated plus-maze test, icv injection, oCRF-induced behavior; type: in vivo, mouse
Procedure: The antagonists and agonists were injected icv 30 and 15 min, respectively, before exposure to the elevated plus-maze for 5 min.
Ten min later the animals received 90 ng oCRF, and after 30 min, their behavior was recorded in the elevated plus maze test.
Alternatively, the elevated plus-maze behavior of C57BL/6J mice cannulated in the lateral ventricles (Radulovic, J., Rühmann, A., Liepold, T & Spiess, J. (1999) J.Neurosci. 19, 5016-5025) was investigated 15 min after injection of ovine CRF (oCRF) in the elevated plus-maze test (Radulovic, J., Kammermeier, J. & Spiess, J. (1998) Behav.Brain Res. 95, 179-189.).Peptide concentrations were determined by amino acid analysis (Radulovic, J., Rühmann, A., Liepold, T. & Spiess, J. (1999) J.Neurosci. 19, 5016-5025). CRF antagonists in aCSF as vehicle or vehicle alone were injected 30 min prior to oCRF administration. The behavior of the mice was recorded by a video camera connected to a PC and analyzed by the software VideoMot 2 (Technical &Scientific Equipment). The time spent, distance crossed, and number of entries in the open arms, closed arms, and center were recorded. The cannular placement was confirmed for each mouse by histological examination of the brains after methylene blue injection (Radulovic, J., Rühmann, A., Liepold, T. & Spiess, J. (1999) J.Neurosci. 19, 5016-5025). The behavioral data were analyzed by t tests or ANOVA followed by post hoc Scheffe's test for multiple comparisons. Data are presented as mean±SEM. The shift of preference from the open to the closed arms is interpreted as an increase of anxiety-like behavior. Locomotor activity is determined with this assay by the distance traveled.

[3] = target: T1, mCRFR2β (Mus musculus, UniProt Q60748); assay: Intracellular cAMP accumulation in mCRFR2β-HEK 293 cells; type: cell-based; details: for Rel. intrinsic activity mCRFR2β: cAMP after 1 μM antagonist relative to Svg stimulation, 95% CI in parentheses; for Rel. potency of antagonist mCRFR2β: inhibition of cAMP accumulation after 1 nM Svg
T1 construct: expressed in transfected cells
T1 sequence (Q60748 1-431 isoform Q60748-2): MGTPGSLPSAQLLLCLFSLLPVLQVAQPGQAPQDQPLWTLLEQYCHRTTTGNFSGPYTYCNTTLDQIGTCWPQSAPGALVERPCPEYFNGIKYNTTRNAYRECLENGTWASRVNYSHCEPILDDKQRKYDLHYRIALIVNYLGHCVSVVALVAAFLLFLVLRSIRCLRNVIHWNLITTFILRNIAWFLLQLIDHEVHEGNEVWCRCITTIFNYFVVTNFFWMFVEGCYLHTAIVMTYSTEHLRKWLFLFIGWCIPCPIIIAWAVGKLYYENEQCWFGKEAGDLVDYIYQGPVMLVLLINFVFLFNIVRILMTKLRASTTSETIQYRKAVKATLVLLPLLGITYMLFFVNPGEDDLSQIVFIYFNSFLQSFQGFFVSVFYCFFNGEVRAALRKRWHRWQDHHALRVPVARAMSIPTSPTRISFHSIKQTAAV
Procedure: (§1) The SPA assay for rCRFR1 and rCRFR2β was performed in 96-well microtiter plates. […] After 1 hour shaking 250 mg wheat germ agglutinin beads per well were added and the plates were counted in a microbeta scintillation counter (Wallac). cAMP accumulation was measured using the SPA based Biotrack assay (Amersham).

[4] = target: T2, rCRFR1 (Rattus norvegicus, UniProt P35353)
T2 sequence (P35353 24-415): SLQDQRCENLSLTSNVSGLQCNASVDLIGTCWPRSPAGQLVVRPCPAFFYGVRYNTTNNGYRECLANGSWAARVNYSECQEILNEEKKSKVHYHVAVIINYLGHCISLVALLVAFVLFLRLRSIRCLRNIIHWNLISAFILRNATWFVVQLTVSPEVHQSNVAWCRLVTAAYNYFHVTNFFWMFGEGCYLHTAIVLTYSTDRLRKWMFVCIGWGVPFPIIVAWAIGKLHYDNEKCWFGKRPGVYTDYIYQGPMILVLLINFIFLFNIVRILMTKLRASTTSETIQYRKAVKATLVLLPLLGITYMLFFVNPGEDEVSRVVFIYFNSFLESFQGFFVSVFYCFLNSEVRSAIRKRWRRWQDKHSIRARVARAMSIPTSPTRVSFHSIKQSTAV

[5] = target: T2, rCRFR1; assay: Competitive binding to rCRFR1, SPA on HEK-293 membrane fractions with [125I-Tyr0]h/rCRF; details: binding affinities CRFR1 vs CRFR2
Procedure: as §1
Binding of CRF-like peptides to rCRFBP was carried out with an SPA assay in nickel-chelate-coated 96-well microtiter plates (Flash Plate PLUS™, NEN), which bound rCRFBP tagged with a C-terminal His6 sequence (rCRFBP-His6). The scintillator beads carrying the Ni 2+ ions for binding of the His tag were located at the inner surface of the wells of this microtiterplate. […] The plates were sealed and incubated for four hours at room temperature. The radioactivities in the microtiterplates were counted in a Wallac 1450 Microbeta scintillation counter by detection of the light emitted from the scintillator beads. In both SPA systems the detection of the radioligand.8 depended on its proximity to the beads containing the scintillator. […] The major portion of counted radioactivity (>70%) represented specific binding that was because of radiolabeled ligand specifically bound to CRFBP or CRFR. […] Binding data were analyzed using the Prism computer program (GraphPad Software, San Diego).

CC[C@H](C)[C@H](NC(=O)[C@@H](NC(=O)[C@H](CC(=O)O)NC(=O)[C@H](CC(C)C)NC(=O)[C@H](CC(C)C)NC(=O)[C@H](CC(C)C)NC(=O)[C@H](CCCNC(=N)N)NC(=O)[C@H](CC(N)=O)NC(=O)[C@H](CC(N)=O)NC(=O)[C@H](C)NC(=O)[C@H](C)NC(=O)[C@H](CCC(N)=O)NC(=O)[C@H](CCC(N)=O)NC(=O)[C@H](CCCCN)NC(=O)[C@H](CCC(=O)O)NC(=O)[C@H](CCCCN)NC(=O)[C@H](CCC(=O)O)NC(=O)[C@H](CCC(N)=O)NC(=O)[C@H](CCCCN)NC(=O)[C@H](CCC(=O)O)NC(=O)[C@@H](NC(=O)[C@H](CCC(=O)O)NC(=O)[C@@H](NC(=O)[C@H](CCSC)NC(=O)[C@H](CCCCN)NC(=O)[C@H](CCCNC(=N)N)NC(=O)[C@H](CC(C)C)NC(=O)[C@H](CC(C)C)NC(=O)[C@H](CCC(=O)O)NC(=O)[C@H](CC(C)C)NC(=O)[C@H](CO)NC(=O)[C@H](CC(C)C)NC(=O)[C@H](CC(=O)O)NC(=O)[C@@H](NC(=O)[C@H](CO)NC(=O)[C@@H](NC(=O)[C@@H]1CCCN1C(=O)[C@@H]1CCCN1C(=O)CNC(=O)[C@@H]1CCC(=O)N1)[C@@H](C)CC)[C@@H](C)CC)[C@@H](C)CC)[C@@H](C)CC)[C@@H](C)O)C(N)=O [Svg, sauvagine]
Isoelectric point [1]: 5.1

oCRF
effect on oCRF-elicited anxious behavior in elevated plus maze (Example 9) ([2]; 220 ng [E11]Ast icv, 10 min later 90 ng oCRF, threefold molar excess): elicited anxious behavior
anxiety-like behavior (open arm visits, % time in open arms) ([2]; icv 20 pmol (90 ng) oCRF): enhanced
locomotion (total distance crossed) in elevated plus-maze ([2]; icv 20 pmol (90 ng) oCRF): markedly decreased
behavior effects at higher agonist dose ([2]; icv 35 pmol (170 ng) oCRF): significantly enhanced

α-helical CRF^9-41 [α-hel-CRF^9-41]
Rel. intrinsic activity mCRFR2β [3]: 1.4 (1.2-1.5) %
Rel. potency of antagonist mCRFR2β [3]: 97 (96-97) %
change of oCRF-induced behavioral effects in plus-maze test ([2]; 120 pmol antagonist icv before 35 pmol oCRF): no significant change
Emax [4]: 19%

h/rCRF
selectivity favoring CRFR1 (over CRFR2), factor [5]: 30

anti-sauvagine-30 [aSvg-30]
Rel. intrinsic activity mCRFR2β [3]: 1.0 (0.9-1.1) %
Rel. potency of antagonist mCRFR2β [3]: 99 (98-99) %
Emax [4]: 6.5%
